# Laboratory results taken from US20060252807A1, “Novel ortho-terphenyl inhibitors of p38 kinase and methods of treating inflammatory disorders” (Kalypsys, Inc., priority 2005, published 2006).
# Target: T1, active p38 alpha enzyme (Upstate Biotechnology) (Homo sapiens, UniProt Q16539)
# T1 construct: purchased Upstate Biotechnology
# Experiment: p38α biochemical assay (ATP turnover, luminescent detection, Cambrex PKlight)
# Settings: p38α biochemical assay, Table 1 Biological Activity
# Description: The p38α biochemical assay employed is based on measurement of total ATP turnover following enzyme incubation with substrate in the presence of ATP with the use of a luminescent detection reagent (Cambrex PKlight). The assays were performed in 1536-well white opaque plates.
# The final volume was 7.5005 μL as prepared prepared from the addition of 5 ul of kinase reaction (p38 alpah+MapkapK2+ATP) with 0.0005 μL compound dissolved in DMSO, and 2.5 ul of the detection reagent. Assay buffer contains the following reagents to give final concentration in the assay: 200 mM Tris, 100 mM MgCl2, 1.5 mM EGTA, 4 mM CaCl2, 20 mM MOPS, 1 mM EDTA, 1% glycerol, 0.1% B-Mecaptoethanol, and 1 mg/ml BSA. Test compounds are pinned using proprietary pintool technology (Kalypsys, Inc) and delivered as […] amounts into the 5 ul mixture of active p38 alpha enzyme (Upstate Biotechnology) and MapkapK2 (Upstate Biotechnology) whole protein as a substrate for phosphorylation in the presence of 1.4 uM final concentration ATP. Reactions are incubated at 30C for 2 hours and detection reagent is added in 2.5 ul/well amounts. Assay is read using a Perkin Elmer Viewlux.
# T1 sequence (Q16539 whole entry): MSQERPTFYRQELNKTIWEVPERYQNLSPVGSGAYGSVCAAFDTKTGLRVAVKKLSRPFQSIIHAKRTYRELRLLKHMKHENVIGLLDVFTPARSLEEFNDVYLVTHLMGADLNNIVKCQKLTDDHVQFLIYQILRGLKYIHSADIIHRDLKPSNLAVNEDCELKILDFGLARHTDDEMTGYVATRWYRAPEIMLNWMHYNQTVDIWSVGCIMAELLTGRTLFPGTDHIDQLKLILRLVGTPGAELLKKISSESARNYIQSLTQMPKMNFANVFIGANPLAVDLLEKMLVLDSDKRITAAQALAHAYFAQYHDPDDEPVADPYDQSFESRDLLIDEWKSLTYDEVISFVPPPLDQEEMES
row,SMILES,IC50
1,CC(C)NC(=O)c1csc(-c2c(-c3ccc(F)cc3)noc2CNC(=O)c2ccc(Cl)cc2O)n1 [Example 670],> 1000 nM
2,"CC(C)NC(=O)c1csc(-c2c(-c3ccc(F)cc3)noc2CN(C)C)n1 [Example 29, 2-|5-Dimethylaminomethyl-3-(4-fluoro-phenyl)-isoxazol-4-yl|-thiazole-4-carboxylic acid isopropylamide]",≤ 1000 nM
3,CC(C)NC(=O)c1csc(-c2c(-c3ccc(F)cc3)noc2CNC(=O)c2cc(O)ccc2O)n1 [Example 621],> 1000 nM
4,COc1ccc(C(=O)NCc2onc(-c3ccc(F)cc3)c2-c2nc(C(=O)NC(C)C)cs2)cc1 [Example 616],> 1000 nM
5,CC(=O)c1cccc(C(=O)N2CCN(Cc3nc(-c4ccc(F)cc4)c(-c4nc(C(=O)NC(C)C)cs4)o3)CC2)c1 [Example 406],> 1000 nM
6,"CC(C)NC(=O)c1csc(-c2oc(CNC(=O)OC(C)(C)C)nc2-c2ccc(F)cc2)n1 [Example 43, |4-(4-Fluoro-phenyl)-5-(4-isopropylcarbamoyl-thiazol-2-yl)-oxazol-2-ylmethyl|-carbamic acid tert-butyl ester]",> 1000 nM
7,CC(C)NC(=O)c1csc(-c2c(-c3ccc(F)cc3)noc2CNC(=O)Cc2cccc(O)c2)n1 [Example 619],≤ 1000 nM
8,"Cc1onc(-c2ccc(Cl)cc2)c1-c1ccn(C(=O)NC(C)C)n1 [Example 2, 3-|3-(4-Chloro-phenyl)-5-methyl-isoxazol-4-yl|-pyrazole-1-carboxylic acid isopropylamide]",≤ 1000 nM
9,Cc1ccccc1OCC(=O)NCc1nc(-c2ccc(F)cc2)c(-c2nc(C(=O)NC(C)C)cs2)o1 [Example 180],> 1000 nM
10,COc1cc(OC)c(C(=O)NCc2onc(-c3ccc(F)cc3)c2-c2nc(C(=O)NC(C)C)cs2)cc1OC [Example 759],> 1000 nM
11,CC(C)NC(=O)c1csc(-c2c(-c3ccc(F)cc3)noc2CNC(=O)c2cncc(Br)c2)n1 [Example 752],> 1000 nM
12,"COCc1onc(-c2ccc(Cl)cc2)c1-c1ccn(C(=O)NC(C)C)n1 [Example 22, 3-|3-(4-Chloro-phenyl)-5-methoxymethyl-isoxazol-4-yl|-pyrazole-1-carboxylic acid isopropylamide]",≤ 1000 nM
13,CC(C)NC(=O)c1csc(-c2oc(CNC(=O)C(C(C)C)N(C)C(=O)OC(C)(C)C)nc2-c2ccc(F)cc2)n1 (stereo not drawn) [Example 318],> 1000 nM
14,COc1ccc(/C=C/C(=O)NCc2nc(-c3ccc(F)cc3)c(-c3nc(C(=O)NC(C)C)cs3)o2)cc1O [Example 262],≤ 1000 nM
15,CC(C)NC(=O)c1csc(-c2oc(CN3CCN(C(=O)c4ccc(Cl)c([N+](=O)[O-])c4)CC3)nc2-c2ccc(F)cc2)n1 [Example 511],> 1000 nM
16,CC(C)NC(=O)c1csc(-c2oc(CNC(=O)c3ccccc3-c3ccccc3)nc2-c2ccc(F)cc2)n1 [Example 267],> 1000 nM
17,CC(C)NC(=O)c1csc(-c2c(-c3ccc(F)cc3)noc2CNC(=O)c2cnc[nH]2)n1 [Example 580],> 1000 nM
18,"CC(C)NC(=O)c1csc(-c2c(-c3ccc(F)cc3)n[nH]c2C2CCNCC2)n1 [Example 61, 2-|3-(4-Fluoro-phenyl)-5-piperidin-4-yl-1H-pyrazol-4-yl|-thiazole-4-carboxylic acid isopropylamide]",≤ 1000 nM

# Same assay, conditions: p38α kinase; Table 1 Biological Activity
row,SMILES,IC50
1,CC(C)NC(=O)c1csc(-c2c(-c3ccc(F)cc3)noc2CN(CCCO)Cc2ccccn2)n1 [Example 1571],> 1000 nM
2,COCCNCc1onc(-c2ccc(F)cc2)c1-c1nc(C(=O)NC(C)C)cs1 [Example 1377],> 1000 nM
3,COc1ccc(CCN(C)C(=O)c2csc(-c3sc(C)nc3-c3ccc(F)cc3)n2)cc1OC [Example 1923],> 1000 nM
4,CC(C)NC(=O)c1csc(-c2oc(CNCc3cccc(F)c3)nc2-c2ccc(F)cc2)n1 [Example 1103],> 1000 nM
5,Cc1nc(-c2ccc(F)cc2)c(-c2nc(C(=O)NCC3CCCO3)cs2)s1 (stereo not drawn) [Example 1733],≤ 1000 nM
6,Cc1cccc(N2CCN(Cc3onc(-c4ccc(F)cc4)c3-c3nc(C(=O)NC(C)C)cs3)CC2C)c1 (stereo not drawn) [Example 1590],> 1000 nM
7,CC(C)NC(=O)c1csc(-c2c(-c3ccc(F)cc3)noc2CNc2ccc(F)c(C(F)(F)F)c2)n1 [Example 1690],> 1000 nM
8,COc1cccc(CCNC(=O)c2csc(-c3c(-c4ccc(F)cc4)n[nH]c3C3CCNCC3)n2)c1 [Example 2120],> 1000 nM
9,CC(CC(=O)N1CCC(c2[nH]nc(-c3ccc(F)cc3)c2-c2nc(C(=O)NC(C)C)cs2)CC1)CC(C)(C)C (stereo not drawn) [Example 876],> 1000 nM
10,CC(C)NC(=O)c1csc(-c2oc(CNCCc3ccccc3F)nc2-c2ccc(F)cc2)n1 [Example 1128],> 1000 nM
11,Cc1c(F)cccc1NCc1nc(-c2ccc(F)cc2)c(-c2nc(C(=O)NC(C)C)cs2)o1 [Example 1329],> 1000 nM
12,CC(C)NC(=O)c1csc(-c2c(-c3ccc(F)cc3)noc2CNN2CCOCC2)n1 [Example 1413],> 1000 nM
13,COC(=O)C1CCN(Cc2nc(-c3ccc(F)cc3)c(-c3nc(C(=O)NC(C)C)cs3)o2)CC1 [Example 1232],> 1000 nM
14,CC(C)NC(=O)c1csc(-c2oc(CNCc3ccccn3)nc2-c2ccc(F)cc2)n1 [Example 1086],≤ 1000 nM
15,CC(C)NC(=O)c1csc(-c2c(-c3ccc(F)cc3)n[nH]c2C2CCN(C(=O)c3cccc(O)c3)CC2)n1 [Example 838],≤ 1000 nM
16,CC(C)NC(=O)c1csc(-c2oc(CN3CCN(C4CCCCC4)CC3)nc2-c2ccc(F)cc2)n1 [Example 1247],> 1000 nM
17,CC(C)NC(=O)c1csc(-c2oc(CN3CCN(c4ccccc4)CC3)nc2-c2ccc(F)cc2)n1 [Example 1241],> 1000 nM
18,CC(C)(C)OC(=O)NCCNC(=O)c1csc(-c2c(-c3ccc(F)cc3)n[nH]c2C2CCNCC2)n1 [Example 2133],> 1000 nM
19,CCOC(=O)CC(C)NCc1onc(-c2ccc(F)cc2)c1-c1nc(C(=O)NC(C)C)cs1 (stereo not drawn) [Example 1442],> 1000 nM
20,CC(C)NC(=O)c1csc(-c2oc(CN3CCC(C(N)=O)CC3)nc2-c2ccc(F)cc2)n1 [Example 1219],> 1000 nM
21,CC(C)NC(=O)c1csc(-c2c(-c3ccc(F)cc3)noc2CNc2cc(C(F)(F)F)ccc2F)n1 [Example 1689],> 1000 nM
22,Cc1nc(-c2ccc(F)cc2)c(-c2nc(C(=O)NCC3(O)CCCCC3)cs2)s1 [Example 1812],≤ 1000 nM
23,Cc1nc(-c2ccc(F)cc2)c(-c2nc(C(=O)N3CCSC3)cs2)s1 [Example 1846],> 1000 nM

row,SMILES,IC50
1,CCC(C)NC(=O)c1csc(-c2c(-c3ccc(F)cc3)n[nH]c2C2CCNCC2)n1 (stereo not drawn) [Example 2039],≤ 1000 nM
2,COc1cc(OC)c(C(=O)N2CCC(c3[nH]nc(-c4ccc(F)cc4)c3-c3nc(C(=O)NC(C)C)cs3)CC2)c(OC)c1 [Example 997],> 1000 nM
3,CC(C)NC(=O)c1csc(-c2c(-c3ccc(F)cc3)n[nH]c2C2CCN(C(=O)CCc3ccccc3O)CC2)n1 [Example 895],> 1000 nM
4,CC(C)NC(=O)c1csc(-c2oc(CN3C[C@@H](C)N[C@@H](C)C3)nc2-c2ccc(F)cc2)n1 [Example 1210],> 1000 nM
5,CC(C)NC(=O)c1csc(-c2c(-c3ccc(F)cc3)noc2CNC2CCc3ccccc32)n1 (stereo not drawn) [Example 1443],> 1000 nM
6,Cc1ccc(NCc2nc(-c3ccc(F)cc3)c(-c3nc(C(=O)NC(C)C)cs3)o2)c(C)c1 [Example 1322],> 1000 nM
7,CC(C)NC(=O)c1csc(-c2c(-c3ccc(F)cc3)noc2CN2CCN(c3ccc(C(C)(C)C)cc3)CC2)n1 [Example 1619],> 1000 nM
8,COCC(C)NC(=O)c1csc(-c2c(-c3ccc(F)cc3)n[nH]c2C2CCNCC2)n1 (stereo not drawn) [Example 2050],> 1000 nM
9,CCC(CO)NCc1nc(-c2ccc(F)cc2)c(-c2nc(C(=O)NC(C)C)cs2)o1 (stereo not drawn) [Example 1073],> 1000 nM
10,CC(C)NC(=O)c1csc(-c2oc(CN(C)C[C@H](O)c3ccc(O)c(O)c3)nc2-c2ccc(F)cc2)n1 [Example 1256],> 1000 nM
11,COc1ccccc1N1CCN(C(=O)c2csc(-c3sc(C)nc3-c3ccc(F)cc3)n2)CC1 [Example 1921],> 1000 nM
12,Cc1ccccc1CNCc1onc(-c2ccc(F)cc2)c1-c1nc(C(=O)NC(C)C)cs1 [Example 1431],> 1000 nM
13,CN(C)CCNC(=O)c1csc(-c2c(-c3ccc(F)cc3)n[nH]c2C2CCNCC2)n1 [Example 2049],> 1000 nM
14,O=C(NCCc1ccccc1Cl)c1csc(-c2c(-c3ccc(F)cc3)n[nH]c2C2CCNCC2)n1 [Example 2126],> 1000 nM
15,Cc1nc(-c2ccc(F)cc2)c(-c2nc(C(=O)NCc3ccccc3)cs2)s1 [Example 1739],≤ 1000 nM
16,N#CCCN(Cc1ccccc1)C(=O)c1csc(-c2c(-c3ccc(F)cc3)n[nH]c2C2CCNCC2)n1 [Example 2132],> 1000 nM
17,O=C(NCc1ccc2c(c1)OCO2)c1csc(-c2c(-c3ccc(F)cc3)n[nH]c2C2CCNCC2)n1 [Example 2119],> 1000 nM
18,CC(C)NC(=O)c1csc(-c2oc(CNc3ccccc3C(=O)c3ccccc3)nc2-c2ccc(F)cc2)n1 [Example 1368],> 1000 nM
19,CC(C)NC(=O)c1csc(-c2oc(CNC3CCCC3)nc2-c2ccc(F)cc2)n1 [Example 1066],> 1000 nM
20,Cc1ccnc(NC(=O)c2csc(-c3sc(C)nc3-c3ccc(F)cc3)n2)c1 [Example 1961],> 1000 nM
21,CCCCN(CC)Cc1nc(-c2ccc(F)cc2)c(-c2nc(C(=O)NC(C)C)cs2)o1 [Example 1202],> 1000 nM
22,CC(C)NC(=O)c1csc(-c2oc(CN3CCN(c4ccc(C#N)cn4)CC3)nc2-c2ccc(F)cc2)n1 [Example 1261],> 1000 nM
